The assay has as its target T1, recombinant human SAE enzyme (Homo sapiens, UniProt Q9UBT2).
T1 sequence (Q9UBT2 1-640): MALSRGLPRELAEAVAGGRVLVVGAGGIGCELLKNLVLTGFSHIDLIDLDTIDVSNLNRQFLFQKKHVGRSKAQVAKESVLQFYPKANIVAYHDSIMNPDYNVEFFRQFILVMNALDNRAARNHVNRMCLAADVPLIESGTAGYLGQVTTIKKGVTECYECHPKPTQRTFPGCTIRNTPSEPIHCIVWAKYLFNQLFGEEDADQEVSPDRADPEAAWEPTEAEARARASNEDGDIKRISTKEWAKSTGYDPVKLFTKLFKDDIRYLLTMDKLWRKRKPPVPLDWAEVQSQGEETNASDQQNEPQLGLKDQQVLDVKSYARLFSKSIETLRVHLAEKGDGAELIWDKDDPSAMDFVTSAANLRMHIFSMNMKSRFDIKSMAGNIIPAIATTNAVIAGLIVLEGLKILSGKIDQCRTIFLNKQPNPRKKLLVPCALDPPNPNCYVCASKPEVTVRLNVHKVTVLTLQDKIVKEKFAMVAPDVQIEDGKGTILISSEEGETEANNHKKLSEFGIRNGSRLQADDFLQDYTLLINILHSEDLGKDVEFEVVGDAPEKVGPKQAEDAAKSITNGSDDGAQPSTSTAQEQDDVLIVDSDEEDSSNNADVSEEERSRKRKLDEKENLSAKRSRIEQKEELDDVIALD
T1 sequence (Q9UBE0 1-346 partner): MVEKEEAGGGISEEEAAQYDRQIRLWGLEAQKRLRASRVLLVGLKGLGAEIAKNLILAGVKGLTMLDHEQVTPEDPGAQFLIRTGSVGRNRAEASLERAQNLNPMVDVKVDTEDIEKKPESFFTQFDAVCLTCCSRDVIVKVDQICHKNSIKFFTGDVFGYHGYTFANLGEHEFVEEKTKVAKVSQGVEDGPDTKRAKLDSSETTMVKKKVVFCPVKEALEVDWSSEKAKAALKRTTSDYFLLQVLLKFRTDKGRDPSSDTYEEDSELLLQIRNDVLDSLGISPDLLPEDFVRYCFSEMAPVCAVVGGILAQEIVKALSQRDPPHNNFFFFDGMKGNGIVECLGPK
Put plainly: SAE HTRF Enzyme Assay. Format: biochemical. The conditions noted are these: for IC50: class symbols A-C; for inhibition at 0.111 µM: compound concentration 0.111 μM, read-out: Percent Inhibition. In short, it runs like this: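 SAE 0.11 nM; ATP 0.5 μM; Sumo-Flag 0.125 μM; Ubc9-GST 0.01 μM; 250 μM GSH, 5 mM MgCl2, pH 7.5. 105 min, 24° C. EDTA/KF stop plus Eu/APC antibodies, 2 h, TR-FRET. % inhibition or IC50.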
(In TR-FRET formats the signal depends on donor and acceptor labels being close together.)

The term IC50 denotes the concentration that inhibits the measured activity by half. For orientation: inhibition means the drop in the measured response relative to a control, in per cent. Turning to `NS(=O)(=O)OC[C@H]1C[C@@H](Nc2ncncc2C(=O)c2ccn(Cc3ccccc3C(F)(F)F)n2)[C@H](O)[C@@H]1O` [Compound I-182, [(1R,2R,3S,4R)-2,3-dihydroxy-4-{[5-({1-[2-(trifluoromethyl)benzy1]-1H-pyrazol-3-yl}carbonyl)pyrimidin-4-yl]amino}cyclopentyl]methyl sulfamate], the 50% inhibitory concentration (IC50) was below 0.01 µM and the inhibition at 0.111 µM came to 96%.
For the compound `NS(=O)(=O)OC[C@H]1C[C@@H](Nc2ncncc2C(=O)c2ccn(Cc3ccc(C(F)(F)F)s3)n2)C[C@@H]1O` [Compound I-183, [(1R,2S,4R)-2-hydroxy-4-({5-[(1-{[5-(trifluoromethyl)-2-thienyl]methyl}-1H-pyrazol-3-yl)carbonyl]pyrimidin-4-yl}amino)cyclopentyl]methyl sulfamate], the IC50 was below 0.01 µM and the inhibition at 0.111 µM came to 96%.
`NS(=O)(=O)OC[C@H]1C[C@@H](Nc2ncncc2C(=O)c2cc(Cl)n(Cc3cccc(C(F)(F)F)c3)c2)[C@@H](F)[C@@H]1O` [Compound I-184, [(1R,2R,3R,4R)-4-{[5-({5-chloro-1-[3-(trifluoromethyl)benzyl]-1H-pyrrol-3-yl}carbonyl)pyrimidin-4-yl]amino}-3-fluoro-2-hydroxycyclopentyl]methyl sulfamate]: the IC50 was below 0.01 µM and the inhibition at 0.111 µM worked out at 97%.
As for `NS(=O)(=O)OC[C@H]1C[C@@H](Nc2ncncc2C(=O)c2ccn(Cc3ccc(F)cc3Cl)n2)C[C@@H]1O` [Compound I-185, {(1R,2S,4R)-4-[(5-{[1-(2-chloro-4-fluorobenzyl)-1H-pyrazol-3-yl]carbonyl}pyrimidin-4-yl)amino]-2-hydroxycyclopentyl}methyl sulfamate], the IC50 was below 0.01 µM and the inhibition at 0.111 µM amounted to 91%.
Consider `Cc1cc(C(=O)c2cncnc2N[C@@H]2C[C@H](COS(N)(=O)=O)[C@@H](O)[C@@H]2F)nn1Cc1cccc(Br)c1` [Compound I-186, {(1R,2R,3R,4R)-4-[(5-{[1-(3-Bromobenzyl)-5-methyl-1H-pyrazol-3-yl]carbonyl}pyrimidin-4-yl)amino]-3-fluoro-2-hydroxycyclopentyl}methyl sulfamate], for which the IC50 was below 0.01 µM and the inhibition at 0.111 µM is above 99%.
On to `CCc1cc(C(=O)c2cncnc2N[C@@H]2C[C@H](COS(N)(=O)=O)[C@@H](O)[C@@H]2F)cn1Cc1cccc(Br)c1` [Compound I-187, {(1R,2R,3R,4R)-4-[(5-{[1-(3-Bromobenzyl)-5-ethyl-1H-pyrrol-3-yl]carbonyl}pyrimidin-4-yl)amino]-3-fluoro-2-hydroxycyclopentyl}methyl sulfamate], for which the half-inhibitory concentration (IC50) is below 0.01 µM and the inhibition at 0.111 µM was determined as 99%.
Take `COc1cccc(Cn2ccc(C(=O)c3cncnc3N[C@@H]3C[C@H](COS(N)(=O)=O)[C@@H](O)[C@@H]3F)c2)n1` [Compound I-188, [(1R,2R,3R,4R)-3-fluoro-2-hydroxy-4-{[5-({1-[(6-methoxypyridin-2-yl)methyl]-1H-pyrrol-3-yl}carbonyl)pyrimidin-4-yl]amino}cyclopentyl]methyl sulfamate]: the IC50 is below 0.01 µM and the inhibition at 0.111 µM was determined as 98%.
As for `NS(=O)(=O)OC[C@H]1C[C@@H](Nc2ncncc2C(=O)c2ccn(Cc3ccc(Cl)s3)c2)[C@@H](F)[C@@H]1O` [Compound I-189, [(1R,2R,3R,4R)-4-{[5-({1-[(5-chloro-2-thienyl)methyl]-1H-pyrrol-3-yl}carbonyl)pyrimidin-4-yl]amino}-3-fluoro-2-hydroxycyclopentyl]methyl sulfamate], the IC50 is below 0.01 µM and the inhibition at 0.111 µM is 100%.
With `NS(=O)(=O)OC[C@H]1C[C@@H](Nc2ncncc2C(=O)c2ccn(Cc3ccc(F)c(F)c3)n2)[C@@H](O)[C@@H]1O` [Compound I-190, {(1R,2R,3R,4R)-4-[(5-{[1-(3,4-difluorobenzyl)-1H-pyrazol-3-yl]carbonyl}pyrimidin-4-yl)amino]-2,3-dihydroxycyclopentyl}methyl sulfamate], the IC50 is below 0.01 µM and the inhibition at 0.111 µM came out at 98%.
`NS(=O)(=O)OC[C@H]1C[C@@H](Nc2ncncc2C(=O)c2ccn(Cc3ccc(Cl)cc3F)n2)C[C@@H]1O` [Compound I-191, {(1R,2S,4R)-4-[(5-{[1-(4-chloro-2-fluorobenzyl)-1H-pyrazol-3-yl]carbonyl}pyrimidin-4-yl)amino]-2-hydroxycyclopentyl}methyl sulfamate]: the IC50 was below 0.01 µM and the inhibition at 0.111 µM stood at 92%.
`NS(=O)(=O)OC[C@H]1C[C@@H](Nc2ncncc2C(=O)c2ccn(Cc3ccccc3Cl)n2)[C@H](O)[C@@H]1O` [Compound I-193, ((1R,2R,3S,4R)-4-((5-(1-(2-Chlorobenzyl)-1H-pyrazole-3-carbonyl)pyrimidin-4-yl)amino)-2,3-dihydroxycyclopentyl)methyl sulfamate]: the IC50 was below 0.01 µM and the inhibition at 0.111 µM was found to be 99%.
As to `NS(=O)(=O)OC[C@H]1C[C@@H](Nc2ncncc2C(=O)c2ccn(Cc3ccc(F)cc3Cl)n2)[C@H](O)[C@@H]1O` [Compound I-194, {(1R,2R,3S,4R)-4-[(5-{[1-(2-chloro-4-fluorobenzyl)-1H-pyrazol-3-yl]carbonyl}pyrimidin-4-yl)amino]-2,3-dihydroxycyclopentyl}methyl sulfamate], the concentration for half-maximal inhibition (IC50) was below 0.01 µM and the inhibition at 0.111 µM is 100%.
Regarding `CC#CCn1ccc(C(=O)c2cncnc2N[C@@H]2C[C@H](COS(N)(=O)=O)[C@@H](O)[C@@H]2F)c1` [Compound I-195, {(1R,2R,3R,4R)-4-[(5-{[1-(but-2-yn-1-yl)-1H-pyrrol-3-yl]carbonyl}pyrimidin-4-yl)amino]-3-fluoro-2-hydroxycyclopentyl}methyl sulfamate], the IC50 was in the range of 0.01 to 0.1 µM and the inhibition at 0.111 µM worked out at 90%.
With `NS(=O)(=O)OC[C@H]1C[C@@H](Nc2ncncc2C(=O)c2ccn(C#Cc3ccccc3)c2)C[C@@H]1O` [Compound I-196, {(1R,2S,4R)-2-Hydroxy-4-[(5-{[1-(phenylethynyl)-1H-pyrrol-3-yl]carbonyl}pyrimidin-4-yl)amino]cyclopentyl}methyl sulfamate], the half-inhibitory concentration (IC50) fell in the range of 0.1 to 1 µM and the inhibition at 0.111 µM stood at 33%.
With `Cc1cc(C(=O)c2cncnc2N[C@@H]2C[C@H](COS(N)(=O)=O)[C@@H](O)[C@@H]2F)nn1Cc1ccc(C(F)(F)F)o1` [Compound I-197, [(1R,2R,3R,4R)-3-Fluoro-2-hydroxy-4-({5-[(5-methyl-1-{[5-(trifluoromethyl)-2-furyl]methyl}-1H-pyrazol-3-yl)carbonyl]pyrimidin-4-yl}amino)cyclopentyl]methyl sulfamate], the IC50 is below 0.01 µM and the inhibition at 0.111 µM worked out at 99%.
For the compound `Cc1ccc(Cn2ccc(C(=O)c3cncnc3N[C@@H]3C[C@H](COS(N)(=O)=O)[C@@H](O)[C@H]3O)n2)cc1F` [Compound I-198, {(1R,2R,3S,4R)-4-[(5-{[1-(3-fluoro-4-methylbenzyl)-1H-pyrazol-3-yl]carbonyl}pyrimidin-4-yl)amino]-2,3-dihydroxycyclopentyl}methyl sulfamate], the IC50 was below 0.01 µM and the inhibition at 0.111 µM was above 99%.
For `NS(=O)(=O)OC[C@H]1C[C@@H](Nc2ncncc2C(=O)c2ccn(CC#Cc3ccco3)n2)C[C@@H]1O` [Compound I-199, [(1R,2S,4R)-4-{[5-({1-[3-(2-furyl)prop-2-yn-1-yl]-1H-pyrazol-3-yl}carbonyl)pyrimidin-4-yl]amino}-2-hydroxycyclopentyl]methyl sulfamate], in that order: below 0.01 µM and 94%.
For `NS(=O)(=O)OC[C@H]1C[C@@H](Nc2ncncc2C(=O)c2ccn(/C=C\c3ccccc3)c2)C[C@@H]1O` [Compound I-200, [(1R,2S,4R)-2-Hydroxy-4-{[5-({1-[(Z)-2-phenylvinyl]-1H-pyrrol-3-yl}carbonyl)pyrimidin-4-yl]amino}cyclopentyl]methyl sulfamate], in that order: below 0.01 µM and 98%.
Take `NS(=O)(=O)OC[C@H]1C[C@@H](Nc2ccncc2C(=O)c2ccn(Cc3cccc(Cl)c3)c2)C[C@@H]1O` [Compound I-201, {(1R,2S,4R)-4-[(3-{[1-(3-chlorobenzyl)-1H-pyrrol-3-yl]carbonyl}pyridin-4-yl)amino]-2-hydroxycyclopentyl}methyl sulfamate]: the IC50 is below 0.01 µM and the inhibition at 0.111 µM came out at 98%.

For the origin of these results see US9695154B2, “Heteroaryl inhibitors of sumo activating enzyme” (MILLENNIUM PHARMACEUTICALS, INC., priority 2013, dated 2017).
